# Reference: US20200397784A1 (priority 2019, published 2020)
# Read-outs that look alike come from different tables or passages of the source. Marks after values point to notes of the source that are not given here.
# Assays:
# [1] = test system: Influenza A/Vietnam/1203/2004 (H5N1) virus; format: in vivo, BALB/c mice; details: treatment +48 h
# influenza A virus = format: in vivo, mice
# influenza A = assay: Mouse influenza A model: lung viral titer; format: in vivo, mice; details: study day 6
# Method: The effectiveness of Compound (1) to reduce lung viral titers was investigated. Mice were infected with influenza A and 24 h later vehicle, oseltamivir (10 mg/kg BID) or Compound (1) (3, 10, 30 mg/kg BID) was administered until lung harvest and viral burden determination on day 6 (Table 27).
# [2] = test system: Influenza A/Victoria/3/75 (H3N2) virus; format: in vivo, BALB/c mice
# [3] = test system: Influenza A/California/04/2009 (pndH1N1) virus; format: in vivo; details: pndH1N1 BALB/c mice
# [4] = test system: influenza virus B/Mass/3/66; assay: Mouse influenza B model, Compound (1) with or without Oseltamivir; format: in vivo, Balb/c mice
# [5] = test system: influenza virus A/PR/8/34; assay: Mouse influenza A model, Compound (1) with or without Oseltamivir, treatment +48 h; format: in vivo, Balb/c mice
# A/Puerto Rico/8/34 [6] = test system: A/Puerto Rico/8/34
# A/Puerto Rico/8/34 [7] = format: cell-based, influenza A virus
# influenza A/PR/8/34 = assay: Mouse influenza A model, combination of Compound (1) with zanamivir; format: in vivo; details: A/PR/8/34 mice, no Compound (1)
# Method: Infected mice were treated with vehicle or escalating dose levels of Form A of the Compound (1) HCl hemihydrate salt Form A (hereinafter in this example simply Compound (1)) in combination with zanamivir starting 24 hours prior to influenza A challenge with 5×10^3 TCID50 A/PR/8/34. The influenza A challenge and Compound (1) suspensions were prepared in a similar manner as described above in Example 8. The challenged mice were treated once IN (intranasal) with zanamivir at 0.3 mg/kg, 1 mg/kg or 3 mg/kg 24 hours prior to IN challenge with 5×10^3 TCID50 A/PR/8/34, and with Compound (1) at 0.1 mg/kg, 0.3 mg/kg, or 1 mg/kg BID for 10 days starting −2 hours prior to the challenge with 5×10^3 TCID50 A/PR/8/34.
# Efficiency quotient, a composite measure of survival, bodyweight loss and lung function (% survival/(% body weight loss at Day 8)*(Penh at Day 6)) is summarized in Table 24B.
# [8] = 10 mg/kg twice a day for 10 days
# [9] = treatment start +24 h, 10 mg/kg BID
# [10] = treatment start +48 h, 10 mg/kg BID
# [11] = treatment start +72 h, 10 mg/kg BID
# [12] = 10 mg/kg twice a day for 10 days starting 2 hours prior to virus exposure
# [13] = 10 mg/kg twice a day, prophylaxis
# [14] = Oseltamivir 10 mg/kg BID prophylaxis
# [15] = influenza B/Mass/3/66 mice, Oseltamivir 10 mg/kg PO BID 10 days alone
# [16] = influenza A/PR/8/34 mice, Oseltamivir 10 mg/kg PO BID 10 days alone, from +48 h
smiles,measurement,setting,value
"CCOC(=O)C1=C[C@@H](OC(CC)CC)[C@H](NC(C)=O)[C@@H](N)C1 [Oseltamivir, oseltamivir]",MDD ± SD (mean day of death of mice that died on or before day 21),[1]; [8],9.5 ± 1.2 days
same,Survivors/Total,[1]; [8],0/10
same,Mean Lung Parameters (Day 6): Virus Titer,[1]; 10 mg/kg twice a day,5.22 ± 0.38 Log10 CCID50/g
same,survival,"influenza A virus; mouse influenza A model, oseltamivir 10 mg/kg BID, same experiment",All of the oseltamivir-administered mice survived
same,protection with delayed dosing,"influenza A virus; mouse, in vivo",only provided complete protection when dosing was initiated 24 h or less
same,survival,"influenza A virus; mouse, in vivo",All of the oseltamivir-administered mice survived
same,Percent Survival,"influenza A virus; mouse, in vivo, 10 mg/kg",100%
same,Percent Body Weight Loss on Study Day 8,influenza A virus; [9],−28.9%
same,Percent Survival,influenza A virus; [9],100%
same,Percent Body Weight Loss on Study Day 8,influenza A virus; [10],−31.1%
same,Percent Survival,influenza A virus; [10],80%
same,Percent Body Weight Loss on Study Day 8,influenza A virus; [11],−31.3%
same,Percent Survival,influenza A virus; [11],0%
same,Percent Body Weight Loss on Study Day 8,"influenza A virus; treatment start −2 h, 10 mg/kg BID",−19.1%
same,Lung Viral Titer,"influenza A; Study 1, 10 mg/kg BID from 24 h post infection for 5 days",6.05 Log10 TCID50
same,Log10 Reduction vs. Vehicle,"influenza A; Study 1, 10 mg/kg BID from 24 h post infection",−0.15 Log10
same,MDD ± SD (mean day of death of mice that died on or before day 21),[2]; [12],7.0 days
same,Survivors/Total,[2]; [12],9/10***
same,Mean Lung Parameters (Day 6): Virus Titer,[2]; [13],7.0 ± 0.3 Log10 CCID50/g
same,Mean Lung Parameters (Day 6): Weight,[2]; [13],218 ± 24 mg
same,Mean Lung Parameters (Day 6): Score,"[2]; 10 mg/kg twice a day, prophylaxis, lung hemorrhage score 0-4",1.7 ± 1.1
same,Mean Lung Parameters (Day 6): Virus Titer,[3]; [14],7.9 ± 0.2 Log10 CCID50/g
same,Mean Lung Parameters (Day 6): Weight,[3]; [14],178 ± 28 mg
same,Mean Lung Parameters (Day 6): Score,"[3]; Oseltamivir 10 mg/kg BID prophylaxis, hemorrhage score 0-4",1.0 ± 0.0^e
same,Survivors/Total,[3]; Oseltamivir 10 mg/kg twice a day for 10 days starting 2 hours prior to virus exposure,10/10***
same,"protection from death, BW loss, lung function","[4]; Oseltamivir 10 mg/kg alone, 2 hours prior to influenza B infection",complete protection from death
same,Penh (Day 6/7),[4]; [15],1.08
same,Survival (21 days),[4]; [15],100%
same,Weight Loss (Day 8),[4]; [15],12.8%
same,"protection from death, BW loss, lung function","[5]; Oseltamivir 10 mg/kg alone, +48 hours post influenza A infection",did not protect from death
same,Penh (Day 3),[5]; [16],2.36
same,Survival (21 days),[5]; [16],0%
same,Weight Loss (Day 8),[5]; [16],32.0%
same,C.I. (combination index),A/Puerto Rico/8/34 [6],0.58
CCC(CC)O[C@@H]1C=C(C(=O)O)C[C@H](N)[C@H]1NC(C)=O [oseltamivir carboxylate],synergy volume,"A/Puerto Rico/8/34 [7]; in combination with Compound (1), Bliss independence method, […]",312
NC(=O)c1nc(F)c[nH]c1=O [favipiravir],synergy volume,A/Puerto Rico/8/34 [7],317
same,C.I. (combination index),A/Puerto Rico/8/34 [6],0.89
"CC(=O)N[C@H]1[C@H]([C@H](O)[C@H](O)CO)OC(C(=O)O)=C[C@@H]1N=C(N)N [Zanamivir, zanamivir]",Survival Rate,"influenza A/PR/8/34; Zanamivir 0.3 mg/kg IN x 1, 24 h prior to infection",37.5
same,Efficiency Quotient (% survival/(% body weight loss at Day 8)*(Penh at Day 6)),influenza A/PR/8/34; Zanamivir 0.3 mg/kg IN x 1,0.44
same,Survival Rate,"influenza A/PR/8/34; Zanamivir 1 mg/kg IN x 1, 24 h prior to infection",50
same,Efficiency Quotient (% survival/(% body weight loss at Day 8)*(Penh at Day 6)),influenza A/PR/8/34; Zanamivir 1 mg/kg IN x 1,0.73
same,Survival Rate,"influenza A/PR/8/34; Zanamivir 3 mg/kg IN x 1, 24 h prior to infection",62.5
same,Efficiency Quotient (% survival/(% body weight loss at Day 8)*(Penh at Day 6)),influenza A/PR/8/34; Zanamivir 3 mg/kg IN x 1,0.73
same,synergy volume,A/Puerto Rico/8/34 [7],268
same,C.I. (combination index),A/Puerto Rico/8/34 [6],0.64
